{"source": "paper PMC10361461", "about": "“Evaluating the solubility of compounds intended for intramammary infusion based upon tests conducted across a range of milk matrices” (PLOS ONE, 2023)", "key": {"plasma protein": {"system": "plasma protein", "details": "cited from earlier work"}, "[1]": {"details": "cited from earlier work; for Solubility in Water at 25°C: descriptions and ranges based on USP definitions"}, "[2]": {"test": "Solubility in milk related vehicles, previous study (Li et al., 2022)", "assay_type": "physicochemical", "details": "RT; data ref 6"}, "[3]": {"details": "cited from earlier work"}, "[4]": {"test": "Solubility assessment in milk vehicles and 10 mM sodium phosphate buffer pH 6.8, HPLC analysis", "assay_type": "physicochemical", "details": "for USP solubility classification: across tested media; for solubility at 60 min: thermodynamic from solid", "procedure": "Solubility assessment was performed in all milk vehicles listed above. A 10 mM sodium phosphate buffer pH 6.8 was also included as a control. For each solubility sample, an excess amount of drug powder was weighed in a 20-mL glass vial. A suitable volume of the vehicle, pre-equilibrated to the desired temperature, was added to the drug powder. The samples were stirred for 60 minutes at 38°C or 20°–25°C [room temperature (RT)] prior to processing. The temperature of 38°C reflects the rectal temperature the healthy adult cow, 38°C [17].\nUpon completion of this portion of the test procedure, approximately 2 mL of the solubility sample was passed through the Phenex-GF 1.2 μm filter to remove the excess drug solid. The filtration and solvent extraction steps were carried out immediately for each sample after the solubility testing was completed. All supplies used in the filtration were pre-equilibrated at the corresponding temperature. […] An aliquot of 0.5 mL filtrate was accurately transferred to a microcentrifuge tube followed by the addition of 1 mL extraction solvent. The extraction solvent was 0.1% TFA in acetonitrile (mobile phase channel B). The mixture was then centrifuged at 10,000 rpm, and about 1 mL of the supernatant was passed through a Phenex-RC 0.45 μm filter. The filtrate was collected in an HPLC autosampler vial and analyzed by the HPLC method described below.\nA gradient HPLC method, described in Table 5, was used to analyze the concentration of all drug solubility samples after treatment."}, "[5]": {"details": "cited from earlier work", "remark": "listed apart in the source"}, "[6]": {"design": "method as in earlier work", "details": "cited from earlier work"}, "[7]": {"details": "room temperature, expressed as free form of cephapirin"}}, "note": "Structures can show the parent of a compound that is named as a salt. Where two headings read alike, the source gives them in different places. Marks after values point to notes of the source that are not given here."}
{"smiles": "CC(=O)Nc1ccc(O)cc1", "note": "[Acetaminophen]", "values": [{"measurement": "Plasma Protein Binding", "setting": "plasma protein", "value": "20–25%"}, {"measurement": "Solubility in Water at 25°C", "setting": "[1]", "value": "Sparingly Soluble (10–33 mg/mL)"}, {"measurement": "Ratio of solubility, Reconstituted whole milk versus raw milk", "setting": "[2]", "value": 1.01}, {"measurement": "Ratio of solubility, Skim milk versus raw milk", "setting": "[2]", "value": 1.08}, {"measurement": "Ratio of solubility, Whole milk versus raw milk", "setting": "[2]", "value": 1.05}, {"measurement": "Ratio of solubility, pH 6.8 buffer versus raw milk", "setting": "[2]", "value": 1.05}, {"measurement": "Ionization state at pH 7", "setting": "[3]", "value": "Neutral"}]}
{"smiles": "CC(=O)OCC1=C(C(=O)O)N2C(=O)[C@@H](NC(=O)CSc3ccncc3)[C@H]2SC1.CC(=O)OCC1=C(C(=O)O)N2C(=O)[C@@H](NC(=O)CSc3ccncc3)[C@H]2SC1.c1ccc(CNCCNCc2ccccc2)cc1", "note": "[Cephapirin Benzathine, Cephapirin benzathine]", "values": [{"measurement": "Solubility in 0.1 N HCl (descriptive)", "setting": "[1]; 0.1 N HCl", "value": "soluble"}, {"measurement": "Solubility in alcohol (descriptive)", "setting": "[1]; alcohol", "value": "freely soluble"}, {"measurement": "Solubility in ether (descriptive)", "setting": "[1]; ether", "value": "practically insoluble"}, {"measurement": "Solubility in toluene (descriptive)", "setting": "[1]; toluene", "value": "practically insoluble"}, {"measurement": "Solubility in water (descriptive)", "setting": "[1]", "value": "practically insoluble"}, {"measurement": "Solubility, Raw Milk", "setting": "[4]; 38°C, expressed as free form of cephapirin", "value": "0.706 ± 0.021", "unit": "mg/mL"}, {"measurement": "Solubility, Reconstituted Whole Milk Powder (Nestle), Lot 1", "setting": "[4]; 38°C, milk powder Lot 1, expressed as free form of cephapirin", "value": "0.740 ± 0.005", "unit": "mg/mL"}, {"measurement": "Solubility, Reconstituted Whole Milk Powder (Nestle), Lot 2", "setting": "[4]; 38°C, milk powder Lot 2, expressed as free form of cephapirin", "value": "0.762 ± 0.028", "unit": "mg/mL"}, {"measurement": "USP solubility classification", "setting": "[4]", "value": "very slightly soluble"}, {"measurement": "Solubility, Raw Milk", "setting": "[4]; [7]", "value": "0.476 ± 0.003", "unit": "mg/mL"}, {"measurement": "Solubility, Reconstituted Whole Milk Powder (Nestle)", "setting": "[4]; [7]", "value": "0.508 ± 0.006", "unit": "mg/mL"}, {"measurement": "Solubility, Skim Milk", "setting": "[4]; [7]", "value": "0.460 ± 0.007", "unit": "mg/mL"}, {"measurement": "Solubility, Whole Milk", "setting": "[4]; [7]", "value": "0.509 ± 0.010", "unit": "mg/mL"}, {"measurement": "Solubility, pH 6.8 buffer (control)", "setting": "[4]; [7]", "value": "0.352 ± 0.003", "unit": "mg/mL"}]}
{"smiles": "CN(C)CCC=C1c2ccccc2CCc2ccccc21", "note": "[Amitriptyline HCl]", "values": [{"measurement": "Plasma Protein Binding", "setting": "plasma protein", "value": "~ 95%"}, {"measurement": "Log P", "setting": "[5]; free base", "value": 5.0}, {"measurement": "Log P", "setting": "[5]; pH 7.4", "value": 3.0}, {"measurement": "Solubility in Water at 25°C", "setting": "[1]", "value": "Freely Soluble (100–1000 mg/mL)"}, {"measurement": "pKa", "setting": "[3]; base", "value": "9.45 (base)"}, {"measurement": "Ionization state at pH 7", "setting": "[3]", "value": "Positively charged"}]}
{"smiles": "C[C@]12C=CC(=O)C=C1CC[C@@H]1[C@@H]2[C@@H](O)C[C@@]2(C)[C@H]1CC[C@]2(O)C(=O)CO", "note": "[Prednisolone]", "values": [{"measurement": "Plasma Protein Binding", "setting": "plasma protein", "value": "60–90%"}, {"measurement": "Log P", "setting": "[5]", "value": "~ 1.6"}, {"measurement": "pKa", "setting": "[3]; in words", "value": "Non-ionizable"}, {"measurement": "Ionization state at pH 7", "setting": "[3]", "value": "Neutral"}]}
{"smiles": "CN1C(C(=O)Nc2ccccn2)=C(O)c2ccccc2S1(=O)=O", "note": "[Piroxicam]", "values": [{"measurement": "Plasma Protein Binding", "setting": "plasma protein", "value": "~ 99%"}, {"measurement": "Log P", "setting": "[5]; pH 6.5", "value": -1.33}, {"measurement": "Log P", "setting": "[5]; pH 6.6", "value": 0.72}, {"measurement": "Solubility in aqueous buffer", "setting": "[6]; aqueous buffer", "value": "0.287 ± 0.019", "unit": "mg/mL"}, {"measurement": "Solubility in skim milk", "setting": "[6]; skim milk", "value": "0.262 ± 0.005", "unit": "mg/mL"}, {"measurement": "Solubility in Water at 25°C", "setting": "[1]", "value": "Practically Insoluble (≤ 0.1 mg/mL)^c"}]}
{"smiles": "CC(=O)OCC1=C(C(=O)O)N2C(=O)[C@@H](NC(=O)CSc3ccncc3)[C@H]2SC1", "note": "[Cephapirin Sodium, Cephapirin sodium]", "values": [{"measurement": "Solubility in most organic solvents (descriptive)", "setting": "[1]; most organic solvents", "value": "insoluble"}, {"measurement": "Solubility in water (descriptive)", "setting": "[1]", "value": "very soluble"}, {"measurement": "solubility at 60 min", "setting": "[4]; 10 mM sodium phosphate buffer, pH 6.8, aqueous buffer, room temperature, expressed as free form of cephapirin, read-out: Solubility, pH 6.8 buffer (control)", "value": "> 200", "unit": "mg/mL"}, {"measurement": "USP solubility classification", "setting": "[4]", "value": "freely soluble"}, {"measurement": "solubility at 60 min", "setting": "[4]; bovine, 38 °C, plasma or biological fluid, reconstituted and raw milk, read-out: Solubility in reconstituted and raw milk", "value": "> 500", "unit": "mg/mL"}, {"measurement": "solubility at 60 min", "setting": "[4]; bovine, milk vehicles (all tested media except the pH 6.8 buffer), plasma or biological fluid, all tested media with the exception of the pH 6.8 aqueous buffer, read-out: Solubility in the tested media", "value": "> 350", "unit": "mg/mL"}, {"measurement": "solubility at 60 min", "setting": "[4]; bovine, raw milk, plasma or biological fluid, 38°C, expressed as free form of cephapirin, read-out: Solubility, Raw Milk", "value": "> 500", "unit": "mg/mL"}, {"measurement": "solubility at 60 min", "setting": "[4]; bovine, raw milk, plasma or biological fluid, room temperature, expressed as free form of cephapirin, read-out: Solubility, Raw Milk", "value": "> 350", "unit": "mg/mL"}, {"measurement": "solubility at 60 min", "setting": "[4]; bovine, reconstituted whole milk powder (Nestle), plasma or biological fluid, room temperature, expressed as free form of cephapirin, read-out: Solubility, Reconstituted Whole Milk Powder (Nestle)", "value": "> 350", "unit": "mg/mL"}, {"measurement": "solubility at 60 min", "setting": "[4]; bovine, skim milk, plasma or biological fluid, room temperature, expressed as free form of cephapirin, read-out: Solubility, Skim Milk", "value": "> 350", "unit": "mg/mL"}, {"measurement": "solubility at 60 min", "setting": "[4]; bovine, whole milk, plasma or biological fluid, room temperature, expressed as free form of cephapirin, read-out: Solubility, Whole Milk", "value": "> 350", "unit": "mg/mL"}, {"measurement": "solubility at 60 min", "setting": "[4]; reconstituted whole milk powder (Nestle), plasma or biological fluid, 38°C, expressed as free form of cephapirin, read-out: Solubility, Reconstituted Whole Milk Powder (Nestle)", "value": "> 500", "unit": "mg/mL"}]}
{"smiles": "C[C@@H]1C[C@H]2[C@@H]3CCC4=CC(=O)C=C[C@]4(C)[C@@]3(F)[C@@H](O)C[C@]2(C)[C@@]1(O)C(=O)CO", "note": "[Dexamethasone]", "values": [{"measurement": "Plasma Protein Binding", "setting": "plasma protein", "value": "~77", "unit": "%"}, {"measurement": "Solubility in Water at 25°C", "setting": "[1]", "value": "Practically Insoluble (≤ 0.1 mg/mL)"}, {"measurement": "Ratio of solubility, Reconstituted whole milk versus raw milk", "setting": "[2]", "value": 1.16}, {"measurement": "Ratio of solubility, Skim milk versus raw milk", "setting": "[2]", "value": 1.04}, {"measurement": "Ratio of solubility, Whole milk versus raw milk", "setting": "[2]", "value": 1.08}, {"measurement": "Ratio of solubility, pH 6.8 buffer versus raw milk", "setting": "[2]", "value": 0.64}, {"measurement": "pKa", "setting": "[3]; in words", "value": "Non-ionizable"}, {"measurement": "Ionization state at pH 7", "setting": "[3]", "value": "Neutral"}]}
